Assay results reported in patent US8802635B2, “Antioxidant, anti-inflammatory, anti-radiation, metal chelating compounds and uses thereof” (Oneday—Biotech And Pharma Ltd., priority 2011, dated 2014).
Non-standard residues stand in square brackets, D forms with d. βAla = NCCC(=O)O

Key:
[1] = system: carrageenan-induced hind paw swelling; test: Carrageenan-induced hind paw swelling; type: in vivo, mice; settings: 150 mg/kg i.p. 30 min prior to carrageenan; for swelling reduction compared to control: control saline only
Protocol: The above new five peptides were examined for anti-inflammatory activity, and their activity was compared to that of peptide CB3. Male ICR mice received an i.p. administration of each of the tested peptide (150 mg/kg) 30 min prior to the injection of carrageenan into the sub-plantar area of both of the animal's hind paws. Carrageenan was dissolved in water at concentration of 3 mg/ml and injected at a volume of 50 μl. Hind paw thickness was measured by Mitutoyo® micrometer before carrageenan injection and afterward at intervals of 1 hour between each measurement. Swelling was calculated as the difference between the thickness of the hind paw measured at each time interval and its size at time 0 (before carrageenan injection). n=6 foot pads (3 animals) for each group.

IkappaBalpha = test: Cytoplasmic stability of I-kappaBalpha in lung, zymosan-induced inflammation; type: in vivo, mice; settings: lung tissue, 24 hours after zymosan
Protocol: (§1) Male BALB/c mice were randomly allocated into the following experimental groups:
(§2) The peptides were administered by an intraperitoneal (i.p.) route of administration as described in Example 3.
(§3) The peptides were formulated in D5W as described in Example 3. The vehicle control was D5W.
(§4) At 24 hours after administration of zymosan, animals were euthanized and assessed for inflammation by an NF-κB analysis of lung tissue.
Tissues were homogenized and nuclear extracts prepared via centrifugation. ELISA for IkappaBalpha was performed, using a series of standards in order to define absolute concentrations.

carnitine = test: Carnitine levels in mouse tissues; type: in vivo, mice; settings: 250 mg/kg i.p. for 5 consecutive days
Protocol: Male ICR mice were injected i.p. with 250 mg/kg DY-65 for 5 consecutive days. Half an hour after the last injection lung, heart, skeletal muscle (femural), brain, liver, kidney and blood were removed, homogenized (100 mg tissue in 200 μl distilled water), centrifuged and filtrated through 30K Microcon® filter. Carnitine analysis was carried out by a commercial kit (BioVision, catalogue number K642-100). n=4 for each group.

HaCaT cells = test: UVB-induced cytotoxicity in HaCaT cells (MTT); type: cell-based; settings: UVB 0.05 J/cm^2; MTT after 72 hours
Protocol: HaCaT cells were seeded in 96-wells plate (10×10^4/ml) and incubated in 37° C., 6% CO2 for 24 hours. Cells were incubated with the peptides at the indicated concentrations for 2.5 hours and washed (PBS). Then 100 μl PBS were added to each well followed by UVB irradiation (0.05 J/cm^2). Cells were washed with PBS and incubated with culture medium (DMEM, 100 μl) containing the peptides. MTT assay was carried out after 72 hours.

NF-κB = test: Nuclear translocation of NF-κB in lung, zymosan-induced inflammation; type: in vivo, mice; settings: lung tissue, 24 hours after zymosan; i.p. dosing as Example 3; p<0.05
Protocol: as §1, §2, §3, §4
Tissues were homogenized and nuclear extracts prepared via centrifugation. […]

[2] = system: granulocytes at the peritoneal lavages; test: Ovalbumin-induced hypersensitivity: percentage of granulocytes in peritoneal lavage (FACS); type: in vivo, mice; settings: 125 mg/kg; Mann-Whitney with Bonferroni correction, p<=0.0125
Protocol: Hypersensitivity was induced as described in Example 5. The mice were treated according to the above protocol with PBS alone (“PBS”, no OVA and no Alum), OVA (“OVA”), OVA+CB3 104 mg/kg, OVA+DY-66 83 mg/kg and OVA+DY-66 125 mg/kg. In all groups, 9 mice were used except for OVA+DY-66 83 mg/kg, where 10 mice were used.
At day 16 the animals were sacrificed, the peritoneum was washed with 4-5 ml of sterile PBS, centrifuged and the cells were re-suspended in sterile PBS containing FCS 2%.
Percentage of granulocytes at the peritoneal lavages were measured by the use of FACS machine analysis of all cells during 10 second flow, followed by a careful analysis of the FACS dot plots.

ROS = ROS levels in C57Bl/6 mice after LPS injection; type: in vivo; settings: 6 h after LPS
Protocol: C57BL/6 female mice (7-8 weeks old) were injected i.p. with the peptide or PBS on days −3, −2, −1 at a dose of 50 mg/kg or with PBS alone (6 mice in each group). On day zero all the mice were injected i.p. with 200 μg/mouse of LPS and 45 min. later they were injected i.p. with 150 mg/kg of the peptide. Another group of 3 mice served as normal untreated mice. […]

[3] = Metal chelation: ferric ion binding by mass spectra (ESI); settings: 0.83 mM peptide, 1.66 mM FeCL3, 1 hour room temperature
Protocol: All five peptides were examined for their ability to bind copper and ferric ions. 0.83 mM of each peptide were mixed with 1.66 mM of either FeCL3 or CuSO4. The mixtures were incubated for 1 hour at room temperature and further kept at ° 4 C until analysis. Samples were analyzed by mass spectra (ESI).

Substance | swelling reduction compared to control ([1]; after 1 hour) [%] | swelling reduction compared to control ([1]; after 2 hours) [%] | swelling reduction compared to control ([1]; after 3 hours) [%] | rank order of efficacy on cytoplasmic IkappaBalpha (IkappaBalpha) | increase in the level of carnitine in other tissues (carnitine) | increase in the level of carnitine in some tissues (carnitine; significant elevation) | protection against UVB-induced cytotoxicity (in words) (HaCaT cells) | hind paw swelling compared to control (in words) [1] | inhibition of the increase in nuclear p65 translocation (NF-κB) | difference in percentage of granulocytes (medians) between OVA and OVA+peptide [2] | ROS levels in platelets and RBCs compared to PBS-treated mice (in words) (ROS; 50 mg/kg i.p. days -3,-2,-1 and 150 mg/kg 45 min after LPS) | ROS level in platelets, % of the level in PBS-treated mice (ROS; p<0.005) | ROS level in RBCs, % of the level in PBS-treated mice (ROS; p<0.05) | FeCl binding (in words) [3]
N-acetyl-Cys-Lys-Met-Cys-NH2 (Ac-CKMC-NH2; cysteine pairing not given here) [DY-65] | 40 | 27 | 34 | DY-70>DY-65>DY-66 | about 70% | about 150% | protective effect at low concentrations |  |  |  |  |  |  | 
N-acetyl-Cys-βAla-His-Cys-NH2 (Ac-C[βAla]HC-NH2; cysteine pairing not given here) [DY-66] |  |  |  | DY-70>DY-65>DY-66 |  |  | protective effect at low concentrations | Reduced swelling compared to control | ca. 80% | highly significant | significant reduction in ROS levels | approximately 55% | approximately 75% | binding was observed
